Entries after “also recorded” stand apart in the source; their conditions may differ. Where two headings read alike, the source gives them in different places. Positions of bridges follow the written chain, without caps; N, C: chain ends. No end group written: not given here.
What was measured:
[1] = test system: adenylyl cyclase of ROS 17/2 cells; assay type: cell-based, rat
Source text: Adenylyl cyclase activities of 4- to 5-day cultures of ROS 17/2 cells in 24-well plates were estimated from the rate of formation of [^3 H]-cAMF from the cellular ATP pool, which had been labelled with [^3 H]-adenine before exposure to hPTH or its analogues in accordance with Jouishomme, H. Whitfield, J. F.; Gagnon, L.; Maclean, S.; Isaacs, R.; Chakravarthy, B.; Durkin, J.; Neugebauer, W.; Willick, G.; Rixon, R. H. Further Definition of the Protein Kinase C Activation Domain of the Parathyroid Hormone. J. Bone Miner. Res. 1994, 9, 943-949.

ovariectomized rat model = details: ovariectomized rats, literature; cited from earlier work
[2] = test system: ovariectomized (OVX) rats; test: Growth of trabeculae in the distal femurs of ovariectomized (OVX) rats, injections week 9 to 15 after OVX; assay type: in vivo; details: 5 nmoles/100 g of body weight s.c. daily, FIG. 8, in words
Source text: Rats were OVXed (OVX) or sham-OVXed (sham) and given daily subcutaneous injections of vehicle between the end of the 9th week and the end of the 15th week after OVX. Injection quantities were 5 nmoles/100 g of body weight. OVXed rats received daily subcutaneous injections of: vehicle (OVX), hPTH(1-31)NH2, 5 nmol (linear), [Leu^27 ]cyclo(Glu^22 -Lys^26)hPTH(1-28)NH2, 5 nmol (cyclic), or [Glu^17,Leu^27]cyclo(Lys^13 -Glu^17,Glu^22 Lys^26)hPTH(1-31)NH2, 5nmol(double cyclic). The femurs were demineralized and stained with Sanderson's rapid bone stain. […] This improvement is not correlated with their relative AC-stimulating activities, but likely results from greater stability to proteolytic attack and greater ability to be transported from the site of injection.

[3] = ROS 17/2 cells, concentration required to obtain half-maximal activity

SVSEIQLMHNLGKHLNSMERVEWLRKKL-NH2 [hPTH(1-28)NH2, reference compound]
AC-Stimulation (ED50%, nM) [1]: 24 nM

SVSEIQLMHNLGKHLNSMERVEWLRKKLQ-NH2 [hPTH(1-29)NH2, reference compound]
AC-Stimulation (ED50%, nM) [1]: 24 nM

Ser Val Ser Glu Ile Gln Leu Met His Asn Leu Gly Lys His Leu Asn Ser Met Glu Arg Val Glu Trp Leu Arg Lys Lys Leu Gin Asp Val-NH2 (SVSEIQLMHNLGKHLNSMERVEWLRKKLQDV-NH2) [hPTH-(1-31)-NH2, linear human parathyroid hormone fragment 1-31 amide]
anabolic activity / restoration of bone loss (ovariectomized rat model): fully active in the restoration of bone loss

[Glu^17, Leu^27 ]cyclo(Lys^13 -Glu^17, Glu^22 -Lys^26)-hPTH-(1-31)-NH2 (SVSEIQLMHNLGKHLNEMERVEWLRKLLQDV-NH2; lactam 13-17, 22-26; N-terminus assumed; SMILES CC[C@H](C)[C@H](NC(=O)[C@H](CCC(=O)O)NC(=O)[C@H](CO)NC(=O)[C@@H](NC(=O)[C@@H](N)CO)C(C)C)C(=O)N[C@@H](CCC(N)=O)C(=O)N[C@@H](CC(C)C)C(=O)N[C@@H](CCSC)C(=O)N[C@@H](Cc1c[nH]cn1)C(=O)N[C@@H](CC(N)=O)C(=O)N[C@@H](CC(C)C)C(=O)NCC(=O)N[C@H]1CCCCNC(=O)CC[C@@H](C(=O)N[C@@H](CCSC)C(=O)N[C@@H](CCC(=O)O)C(=O)N[C@@H](CCCNC(=N)N)C(=O)N[C@H](C(=O)N[C@H]2CCC(=O)NCCCC[C@@H](C(=O)N[C@@H](CC(C)C)C(=O)N[C@@H](CC(C)C)C(=O)N[C@@H](CCC(N)=O)C(=O)N[C@@H](CC(=O)O)C(=O)N[C@H](C(N)=O)C(C)C)NC(=O)[C@H](CCCNC(=N)N)NC(=O)[C@H](CC(C)C)NC(=O)[C@H](Cc3c[nH]c4ccccc34)NC2=O)C(C)C)NC(=O)[C@H](CC(N)=O)NC(=O)[C@H](CC(C)C)NC(=O)[C@H](Cc2c[nH]cn2)NC1=O) [double cyclic (13-17 and 22-26 lactams) hPTH 1-31 amide analogue]
AC-Stimulation (ED50%, nM) [1, 3]: 13.2 nM
increasing the thickness of the remaining trabeculae [2]: better than its monocyclic counterpart; also recorded: significantly better than the linear molecule

[Leu^27 ]cyclo(Glu^22 -Lys^26)-hPTH-(1-28)-NH2 (SVSEIQLMHNLGKHLNSMERVEWLRKLL-NH2; lactam 22-26; N-terminus assumed; SMILES CC[C@H](C)[C@H](NC(=O)[C@H](CCC(=O)O)NC(=O)[C@H](CO)NC(=O)[C@@H](NC(=O)[C@@H](N)CO)C(C)C)C(=O)N[C@@H](CCC(N)=O)C(=O)N[C@@H](CC(C)C)C(=O)N[C@@H](CCSC)C(=O)N[C@@H](Cc1c[nH]cn1)C(=O)N[C@@H](CC(N)=O)C(=O)N[C@@H](CC(C)C)C(=O)NCC(=O)N[C@@H](CCCCN)C(=O)N[C@@H](Cc1c[nH]cn1)C(=O)N[C@@H](CC(C)C)C(=O)N[C@@H](CC(N)=O)C(=O)N[C@@H](CO)C(=O)N[C@@H](CCSC)C(=O)N[C@@H](CCC(=O)O)C(=O)N[C@@H](CCCNC(=N)N)C(=O)N[C@H](C(=O)N[C@H]1CCC(=O)NCCCC[C@@H](C(=O)N[C@@H](CC(C)C)C(=O)N[C@@H](CC(C)C)C(N)=O)NC(=O)[C@H](CCCNC(=N)N)NC(=O)[C@H](CC(C)C)NC(=O)[C@H](Cc2c[nH]c3ccccc23)NC1=O)C(C)C) [[Leu^27]c(Glu^22 -Lys^26)hPTH(1-28)NH2, 22-26 lactam cyclic analogue of human parathyroid hormone 1-28 amide with Leu27]
AC-Stimulation (ED50%, nM) [1, 3]: 9.6 nM

[Leu^27 ]cyclo(Glu^22 -Lys^26)-hPTH-(1-29)-NH2 (SVSEIQLMHNLGKHLNSMERVEWLRKLLQ-NH2; lactam 22-26; N-terminus assumed; SMILES CC[C@H](C)[C@H](NC(=O)[C@H](CCC(=O)O)NC(=O)[C@H](CO)NC(=O)[C@@H](NC(=O)[C@@H](N)CO)C(C)C)C(=O)N[C@@H](CCC(N)=O)C(=O)N[C@@H](CC(C)C)C(=O)N[C@@H](CCSC)C(=O)N[C@@H](Cc1c[nH]cn1)C(=O)N[C@@H](CC(N)=O)C(=O)N[C@@H](CC(C)C)C(=O)NCC(=O)N[C@@H](CCCCN)C(=O)N[C@@H](Cc1c[nH]cn1)C(=O)N[C@@H](CC(C)C)C(=O)N[C@@H](CC(N)=O)C(=O)N[C@@H](CO)C(=O)N[C@@H](CCSC)C(=O)N[C@@H](CCC(=O)O)C(=O)N[C@@H](CCCNC(=N)N)C(=O)N[C@H](C(=O)N[C@H]1CCC(=O)NCCCC[C@@H](C(=O)N[C@@H](CC(C)C)C(=O)N[C@@H](CC(C)C)C(=O)N[C@@H](CCC(N)=O)C(N)=O)NC(=O)[C@H](CCCNC(=N)N)NC(=O)[C@H](CC(C)C)NC(=O)[C@H](Cc2c[nH]c3ccccc23)NC1=O)C(C)C) [[Leu^27]c(Glu^22 -Lys^26)hPTH(1-29)NH2, 22-26 lactam cyclic analogue of human parathyroid hormone 1-29 amide with Leu27]
AC-Stimulation (ED50%, nM) [1, 3]: 8.4 nM

hPTH(1-30)NH2 (SVSEIQLMHNLGKHLNSMERVEWLRKKLQD-NH2; UniProt P01270 32-61, looked up, fragment) [linear human parathyroid hormone fragment 1-30 amide]
anabolic activity / restoration of bone loss (ovariectomized rat model): only with much higher doses than used with the (1-31) analogue

B1: [Leu^27]cyclo(Glu^22-Lys^26)-hPTH-(1-29)-NH2 (peptide)
peptide: SVSEIQLMHNLGKHLNSMERVEWLRKLLQ-NH2
modifications: lactam 22-26; N-terminus assumed
SMILES: CC[C@H](C)[C@H](NC(=O)[C@H](CCC(=O)O)NC(=O)[C@H](CO)NC(=O)[C@@H](NC(=O)[C@@H](N)CO)C(C)C)C(=O)N[C@@H](CCC(N)=O)C(=O)N[C@@H](CC(C)C)C(=O)N[C@@H](CCSC)C(=O)N[C@@H](Cc1c[nH]cn1)C(=O)N[C@@H](CC(N)=O)C(=O)N[C@@H](CC(C)C)C(=O)NCC(=O)N[C@@H](CCCCN)C(=O)N[C@@H](Cc1c[nH]cn1)C(=O)N[C@@H](CC(C)C)C(=O)N[C@@H](CC(N)=O)C(=O)N[C@@H](CO)C(=O)N[C@@H](CCSC)C(=O)N[C@@H](CCC(=O)O)C(=O)N[C@@H](CCCNC(=N)N)C(=O)N[C@H](C(=O)N[C@H]1CCC(=O)NCCCC[C@@H](C(=O)N[C@@H](CC(C)C)C(=O)N[C@@H](CC(C)C)C(=O)N[C@@H](CCC(N)=O)C(N)=O)NC(=O)[C@H](CCCNC(=N)N)NC(=O)[C@H](CC(C)C)NC(=O)[C@H](Cc2c[nH]c3ccccc23)NC1=O)C(C)C
AC-Stimulation (ED50%, nM) (PTH receptor): 8.4 nM

SVSEIQLMHNLGKHLNSMERVEWLRKKL-NH2 [hPTH(1-28)NH2]
AC-Stimulation (ED50%, nM) (PTH receptor): 24 nM

B2: [Glu^17, Leu^27]cyclo(Lys^13-Glu^17, Glu^22-Lys^26)-hPTH-(1-31)-NH2 (peptide)
peptide: SVSEIQLMHNLGKHLNEMERVEWLRKLLQDV-NH2
modifications: lactam 13-17, 22-26; N-terminus assumed
SMILES: CC[C@H](C)[C@H](NC(=O)[C@H](CCC(=O)O)NC(=O)[C@H](CO)NC(=O)[C@@H](NC(=O)[C@@H](N)CO)C(C)C)C(=O)N[C@@H](CCC(N)=O)C(=O)N[C@@H](CC(C)C)C(=O)N[C@@H](CCSC)C(=O)N[C@@H](Cc1c[nH]cn1)C(=O)N[C@@H](CC(N)=O)C(=O)N[C@@H](CC(C)C)C(=O)NCC(=O)N[C@H]1CCCCNC(=O)CC[C@@H](C(=O)N[C@@H](CCSC)C(=O)N[C@@H](CCC(=O)O)C(=O)N[C@@H](CCCNC(=N)N)C(=O)N[C@H](C(=O)N[C@H]2CCC(=O)NCCCC[C@@H](C(=O)N[C@@H](CC(C)C)C(=O)N[C@@H](CC(C)C)C(=O)N[C@@H](CCC(N)=O)C(=O)N[C@@H](CC(=O)O)C(=O)N[C@H](C(N)=O)C(C)C)NC(=O)[C@H](CCCNC(=N)N)NC(=O)[C@H](CC(C)C)NC(=O)[C@H](Cc3c[nH]c4ccccc34)NC2=O)C(C)C)NC(=O)[C@H](CC(N)=O)NC(=O)[C@H](CC(C)C)NC(=O)[C@H](Cc2c[nH]cn2)NC1=O
AC-Stimulation (ED50%, nM) (PTH receptor): 13.2 nM

SVSEIQLMHNLGKHLNSMERVEWLRKKLQ-NH2 [hPTH(1-29)NH2]
AC-Stimulation (ED50%, nM) (PTH receptor): 24 nM

B3: [Leu^27]cyclo(Glu^22-Lys^26)-hPTH-(1-28)-NH2 (peptide)
peptide: SVSEIQLMHNLGKHLNSMERVEWLRKLL-NH2
modifications: lactam 22-26; N-terminus assumed
SMILES: CC[C@H](C)[C@H](NC(=O)[C@H](CCC(=O)O)NC(=O)[C@H](CO)NC(=O)[C@@H](NC(=O)[C@@H](N)CO)C(C)C)C(=O)N[C@@H](CCC(N)=O)C(=O)N[C@@H](CC(C)C)C(=O)N[C@@H](CCSC)C(=O)N[C@@H](Cc1c[nH]cn1)C(=O)N[C@@H](CC(N)=O)C(=O)N[C@@H](CC(C)C)C(=O)NCC(=O)N[C@@H](CCCCN)C(=O)N[C@@H](Cc1c[nH]cn1)C(=O)N[C@@H](CC(C)C)C(=O)N[C@@H](CC(N)=O)C(=O)N[C@@H](CO)C(=O)N[C@@H](CCSC)C(=O)N[C@@H](CCC(=O)O)C(=O)N[C@@H](CCCNC(=N)N)C(=O)N[C@H](C(=O)N[C@H]1CCC(=O)NCCCC[C@@H](C(=O)N[C@@H](CC(C)C)C(=O)N[C@@H](CC(C)C)C(N)=O)NC(=O)[C@H](CCCNC(=N)N)NC(=O)[C@H](CC(C)C)NC(=O)[C@H](Cc2c[nH]c3ccccc23)NC1=O)C(C)C
AC-Stimulation (ED50%, nM) (PTH receptor): 9.6 nM

Reference: patent US6316410A, “Parathyroid hormone analogues for the treatment of osteoporosis” (National Research Council of Canada, priority 1999, dated 2001)
